Converted amounts (≈) assume the structure as drawn. Counter-ions that a name gives are not always drawn. Like-named read-outs stand apart in the source and are kept apart here. Marks after values point to notes of the source that are not given here.
What was measured:
[1] = Efficacious dose in preclinical species; type: in vivo
Procedure: (§1) A standard capsule formulation with 2-((1R,4R)-4-(4-(5-(benzo[d]oxazol-2-ylamino)pyridin-2-yl)phenyl)cyclohexyl)acetic acid meglumine is the recommended CSF strategy to support the projected efficacious dose range in human (11-120 mg) based on following observations: • Low efficacious dose of 2-((1R,4R)-4-(4-(5-(benzo[d]oxazol-2-ylamino)pyridin-2-yl)phenyl)cyclohexyl)acetic acid in preclinical species (0.1-0.3 mg/kg) • High exposure multiples in preclinical species (rat and dog) from a suspension formulation of 2-((1R,4R)-4-(4-(5-(benzo[d]oxazol-2-ylamino)pyridin-2-yl)phenyl)cyclohexyl)acetic acid meglumine • Aqueous kinetic solubility of 2-((1R,4R)-4-(4-(5-(benzo[d]oxazol-2-ylamino)pyridin-2-yl)phenyl)cyclohexyl)acetic acid meglumine can be further improved (20-60 fold) from simple physical blend with polymers and/or surfactants • Improvement in exposure and dose linearity from 2-((1R,4R)-4-(4-(5-(benzo[d]oxazol-2-ylamino)pyridin-2-yl)phenyl)cyclohexyl)acetic acid meglumine over the sodium salt

[2] = Hygroscopicity (relative humidity); type: physicochemical; conditions: for Change in crystallinity (PXRD): listed under hygroscopicity
[3] = Intrinsic dissolution rate; type: physicochemical
[4] = Solubility in buffers, biorelevant media and water
Efficacious AUC in dog = type: in vivo; conditions: plasma, 0.3 mg/kg, at 0.3 mpk
Procedure: (§2) With a meglumine salt suspension at 100 mg/kg, about 33% decrease in plasma exposure was observed compared to solid dispersion. […] The solid dispersion formulation has several technical challenges which can be avoided by using a 2-((1R,4R)-4-(4-(5-(benzo[d]oxazol-2-ylamino)pyridin-2-yl)phenyl)cyclohexyl)acetic acid meglumine Form A suspension-based formulation.

[5] = Oral exposure and bioavailability in rat; type: in vivo; conditions: for dose linearity: suspension
Procedure: (§3) Direct in vivo comparison of 2-((1R,4R)-4-(4-(5-(benzo[d]oxazol-2-ylamino)pyridin-2-yl)phenyl)cyclohexyl)acetic acid meglumine and 2-((1R,4R)-4-(4-(5-(benzo[d]oxazol-2-ylamino)pyridin-2-yl)phenyl)cyclohexyl)acetic acid sodium salt suspensions were performed in rat and mouse. […] From this preclinical data, it was confirmed that 2-((1R,4R)-4-(4-(5-(benzo[d]oxazol-2-ylamino)pyridin-2-yl)phenyl)cyclohexyl)acetic acid meglumine is a better performing salt.

[6] = Oral bioavailability in mouse; type: in vivo; conditions: suspension at 30 mg/kg
Procedure: as §3

[7] = Oral exposure and bioavailability in dog; type: in vivo
Procedure: as §2

[8] = Aqueous kinetic solubility, physical blend with polymers and/or surfactants; type: physicochemical; conditions: simple physical blend with polymers and/or surfactants
Procedure: as §1

[9] = background statement, no medium given

SMILES | Hygroscopicity [%] 0-40% r.h. [2] [%] | Hygroscopicity [%] 0-95% r.h. [2] [%] | Change in crystallinity (PXRD) [2] | Intrinsic Dissolution Rate ([3]; pH 4.5 (50 mM Acetate)) | Intrinsic Dissolution Rate ([3]; pH 6.8 (50 mM Phosphate)) | pH final of solubility sample ([4]; FaSSIF V2) | Solubility ([4]; FeSSIF V2) [µg/mL] | pH final of solubility sample ([4]; FeSSIF V2) | pH final of solubility sample ([4]; SGF pH 2.0) | Solubility ([4]; Water) [µg/mL] | pH final of solubility sample ([4]; Water) | Solubility ([4]; pH 1 (0.1N HCl)) [µg/mL] | pH final of solubility sample ([4]; pH 1 (0.1N HCl)) | pH final of solubility sample ([4]; pH 4.8 (50 mM Acetate)) | Solubility ([4]; pH 6.5 (50 mM Phosphate)) [µg/mL] | pH final of solubility sample ([4]; pH 6.5 (50 mM Phosphate)) | dose linearity ([5]; 30 and 100 mg/kg) | Solubility ([4]; FaSSIF V2) [µg/mL] | Solubility ([4]; pH 4.8 (50 mM Acetate)) [µg/mL] | Solubility ([4]; SGF pH 2.0) [µg/mL] | further results
O=C(O)C[C@H]1CC[C@H](c2ccc(-c3ccc(Nc4nc5ccccc5o4)cn3)cc2)CC1 [Free acid, 2-((1R,4R)-4-(4-(5-(benzo[d]oxazol-2-ylamino)pyridin-2-yl)phenyl)cyclohexyl)acetic acid] | 0.136 | 0.251 | No | 0.013 mg min^−1 cm^−2 | BLQ | (6.34) | 60 (≈ 140 µM) | (5.53) | (2.38) | 10 (≈ 23.4 µM) | (7.63) | <0.5 | (1.59) | (4.76) | <0.5 | (6.87) |  |  |  |  | efficacious dose in preclinical species [1]: 0.1 to 0.3 mg/kg; intrinsic dissolution (in words) [3, 9]: low; Solubility ([4]; 50 mM acetate buffer, pH 4.8, aqueous buffer, Solubility [mg/ml], pH 4.8 (50 mM Acetate)): < 0.5 µg/mL; Solubility ([4]; FaSSIF V2, fassif, Solubility [mg/ml], FaSSIF V2): 20 µg/mL (≈ 46.8 µM); Solubility ([4]; SGF, pH 2, simulated gastric fluid, Solubility [mg/ml], SGF pH 2.0): < 0.5 µg/mL; solubility (in words) [4, 9]: low; AUC (Efficacious AUC in dog): 0.132 µM·h
O=C([O-])C[C@H]1CC[C@H](c2ccc(-c3ccc(Nc4nc5ccccc5o4)cn3)cc2)CC1.[Na+] [Sodium, 2-((1R,4R)-4-(4-(5-(benzo[d]oxazol-2-ylamino)pyridin-2-yl)phenyl)cyclohexyl) acetate sodium salt] | 13.1 | 16.2 | No |  |  | (7.47) | 3 | (5.66) | (9.13) | 23 | (9.3) | <0.5 | (1.03) | (5.08) | 0.6 | (8.5) | not dose linear | 7 | <0.5 |  | bioavailability ([5]; suspension at 30 mg/kg): 7.6%; bioavailability ([5]; suspension at 100 mg/kg): 4.6%; Solubility [mg/ml] ([4]; SGF pH 2.0): 0.062* mg/ml; bioavailability [6]: 9.6%
C[N+](C)(C)CCO.O=C(O)C[C@H]1CC[C@H](c2ccc(-c3ccc(Nc4nc5ccccc5o4)cn3)cc2)CC1.O=C([O-])C[C@H]1CC[C@H](c2ccc(-c3ccc(Nc4nc5ccccc5o4)cn3)cc2)CC1 [Hemi-choline, 2-((1R,4R)-4-(4-(5-(benzo[d]oxazol-2-ylamino)pyridin-2-yl)phenyl)cyclohexyl) acetate Hemi-choline salt] | 1.44 | 15.95 | No | BLQ |  |  |  |  |  |  |  |  |  |  |  |  |  |  |  |  | Solubility (pH 1): 140 µg/mL; pH final of solubility sample (pH 1): (1.06); Solubility (pH 2): 95 µg/mL; pH final of solubility sample (pH 2): (1.05); Solubility (pH 4.8): 15 µg/mL; pH final of solubility sample (pH 4.8): (4.76); Solubility (pH 6.5): 30 µg/mL; pH final of solubility sample (pH 6.5): (7.15)
O=C(O)C[C@H]1CC[C@H](c2ccc(-c3ccc(Nc4nc5ccccc5o4)cn3)cc2)CC1 [Meglumine Form A, Meglumine salt of 2-((1R,4R)-4-(4-(5-(benzo[d]oxazol-2-ylamino)pyridin-2-yl)phenyl)cyclohexyl)acetic acid] | 0.162 | 0.588 | No | BLQ | BLQ | (6.86) | 1 | (6.26) | (2.37) | 70 | (10.4) | 150 | (2.79) | (4.88) | 40 | (7.27) |  | 10 | <0.5 | <0.5 | 
O=C(O)C[C@H]1CC[C@H](c2ccc(-c3ccc(Nc4nc5ccccc5o4)cn3)cc2)CC1 [meglumine salt, meglumine salt of 2-((1R,4R)-4-(4-(5-(benzo[d]oxazol-2-ylamino)pyridin-2-yl)phenyl)cyclohexyl)acetic acid] |  |  |  |  |  |  |  |  |  |  |  |  |  |  |  |  | dose linear |  |  |  | bioavailability ([7]; plasma, po, 30 mg/kg solution dose (sodium material dissolved in 10% HPβCD in purified water or PBS), read-out: Absolute oral bioavailability): 1.5%; decrease in plasma exposure compared to solid dispersion ([7]; suspension at 100 mg/kg): about 33%; exposure over the efficacious AUC ([7]; suspension at 100 mg/kg): ~150 ×; improvement of aqueous kinetic solubility [8]: 20-60 fold; dose linearity ([5]; 300 mpk): non-linear; bioavailability ([5]; in vivo, oral, 300 mg/kg, suspension at 300 mpk, read-out: bioavailability): 1.9%; bioavailability ([5]; in vivo, oral, suspension at 30 mg/kg, read-out: bioavailability): 3.1%; bioavailability ([5]; in vivo, oral, suspension at 100 mg/kg, read-out: bioavailability): 3.8%; bioavailability ([6]; in vivo, oral, read-out: bioavailability): 17.3%
O=C([O-])C[C@H]1CC[C@H](c2ccc(-c3ccc(Nc4nc5ccccc5o4)cn3)cc2)CC1.[K+] [Potassium, 2-((1R,4R)-4-(4-(5-(benzo[d]oxazol-2-ylamino)pyridin-2-yl)phenyl)cyclohexyl) acetate Potassium salt] | 4.52 | 21.77 | No |  |  | (8.32) |  |  | (3.73) | 1050 | (10.3) | 50 | (3.89) | (4.90) | <0.5 | (7.29) |  | 95 | <0.5 | 3 | 

From patent US8987459B2, “Compounds for the treatment of conditions associated with DGAT1 activity” (Novartis AG, priority 2013, dated 2015)
